Results: ChEMBL document CHEMBL1201862, “PubChem BioAssay data set” (2004)
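How tested: cells in 96-well plates exposed to compound for 48 hours at five concentrations. Abbreviation: GI50, concentration required for 50% inhibition of growth.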 Active and inactive are the calls of the source. No stated cut-off is given here; in the data, active = GI50 up to about 1.1 µM and inactive = higher.

Experiments:
Test in all cases: NCI-60 cell line screen, 48 h
[1] = test system: A498
[2] = test system: A549
[3] = test system: COLO 205
[4] = test system: HCC 2998
[5] = test system: HCT-116
[6] = test system: HL-60
[7] = test system: HOP-92
[8] = test system: HT-29
[9] = test system: LOX IMVI
[10] = test system: MOLT-4
[11] = test system: NCI-H522
[12] = test system: OVCAR-3
[13] = test system: OVCAR-8
[14] = test system: RPMI-8226
[15] = test system: SF-295
[16] = test system: SR
[17] = test system: U-251
[18] = test system: UO-31
[19] = test system: MDA-MB-435
[20] = test system: NCI/ADR-RES

Measured: GI50

OCCC1(O)CCC(O)CC1 (configuration not stated)
inactive: [1] > 100 µM | [2] > 100 µM | [3] > 100 µM | [4] > 100 µM | [5] > 100 µM | [6] > 100 µM | [7] > 100 µM | [8] > 100 µM | [9] > 100 µM | [10] > 100 µM | [11] > 100 µM | [12] > 100 µM | [13] > 100 µM | [14] > 100 µM | [15] > 100 µM | [16] > 100 µM | [17] > 100 µM | [18] > 100 µM

O=C(/C=C/c1ccccc1F)c1ccc(Cl)c(Cl)c1
inactive: [1] > 39.1 µM | [2] 64 µM | [3] 75.3 µM | [4] 24.7 µM | [5] 16.3 µM | [6] 18.9 µM | [7] > 100 µM | [8] 27.3 µM | [9] 15.4 µM | [10] 27.4 µM | [11] 23.2 µM | [12] > 44.8 µM | [13] 33 µM | [14] 27.7 µM | [15] 39.3 µM | [16] 33.3 µM | [17] > 10 µM | [18] 40.9 µM

CC1OC(OC2C(OC(=O)[C@@H]3CC(C)(C)C[C@@H]4C5=CC[C@@H]6[C@@]7(C)C[C@H](O)[C@H](OC8OC(CO)C(O)C(O)C8O)[C@@](C)(CO)C7[C@H](O)C[C@@]6(C)[C@]5(C)C[C@@H](O)[C@H]43)OCC(O)C2O)C(O)C(O)C1O (some centres not stated)
inactive: [3] 6.28 µM | [4] 8.69 µM | [5] 7.57 µM | [6] > 15 µM | [7] > 15 µM | [8] 11.5 µM | [9] > 15 µM | [19] > 15 µM | [10] > 15 µM | [11] 6.12 µM | [20] > 15 µM | [12] > 15 µM | [13] > 15 µM | [15] > 15 µM | [17] > 15 µM | [18] 6.49 µM

O=C1C(O)=C(CCCc2ccc(Oc3ccccc3)cc2)C(=O)c2ccccc21
inactive: [1] 10.3 µM | [3] 17.7 µM | [4] 25.7 µM | [5] 3.7 µM | [6] 7.94 µM | [7] 12.9 µM | [8] 30.9 µM | [9] 3.57 µM | [10] 4.19 µM | [11] 6.49 µM | [12] 6.53 µM | [13] 7.76 µM | [14] 5.52 µM | [15] 7.78 µM | [16] 15.2 µM | [17] 5.64 µM | [18] 5.92 µM

O=C(CC(=O)c1ccccc1)C(=O)Nc1ccc(Cl)cc1
inactive: [1] > 100 µM | [2] > 94.6 µM | [3] > 46.2 µM | [4] > 64.3 µM | [5] > 42.8 µM | [6] > 100 µM | [7] > 100 µM | [8] > 42.8 µM | [9] > 42 µM | [10] > 100 µM | [11] 97.9 µM | [12] > 100 µM | [13] > 100 µM | [14] > 100 µM | [15] > 100 µM | [16] > 100 µM | [17] > 100 µM | [18] > 100 µM

C[C@]12CCCC(=O)C1(O)C[C@H](C(=O)O)CC2 (some centres not stated)
inactive: [1] > 100 µM | [2] > 100 µM | [3] > 100 µM | [4] > 100 µM | [5] > 100 µM | [6] > 100 µM | [7] > 100 µM | [8] > 100 µM | [9] > 100 µM | [10] > 100 µM | [11] > 100 µM | [12] > 100 µM | [13] > 100 µM | [14] > 100 µM | [15] > 100 µM | [16] > 100 µM | [17] > 100 µM | [18] > 100 µM

CCOC(=O)C1=COC(C)(CCc2ccccc2)CC1=O (configuration not stated)
inactive: [1] > 100 µM | [2] 40.9 µM | [3] > 100 µM | [5] 67.9 µM | [8] 56.2 µM | [19] 51.8 µM | [10] 43.2 µM | [11] 24.7 µM | [20] > 100 µM | [12] 80.2 µM | [13] 52.4 µM | [14] 41.9 µM | [15] > 100 µM | [17] 41.3 µM | [18] 91.2 µM

Clc1ccc(OCc2nnc(CCCCCCCCc3nnc(COc4ccc(Cl)cc4Cl)o3)o2)c(Cl)c1
inactive: [1] > 100 µM | [2] 49.2 µM | [3] > 100 µM | [4] > 100 µM | [5] 15.7 µM | [7] 41.1 µM | [8] > 100 µM | [19] > 100 µM | [10] 14.3 µM | [11] 18.7 µM | [20] 76.6 µM | [14] 58.9 µM | [15] 85.1 µM | [17] > 100 µM | [18] 44.1 µM

Cc1cccc(C)c1NC(=O)C(C#N)C1=C(Cl)C(=O)c2ccccc2C1=O (configuration not stated)
inactive: [1] 14.8 µM | [2] 19.7 µM | [3] 6.35 µM | [4] 17.8 µM | [5] 15.4 µM | [6] 5.53 µM | [7] 10.2 µM | [8] 18.6 µM | [9] 9.33 µM | [19] 17.2 µM | [10] 1.93 µM | [11] 10.5 µM | [12] 11.3 µM | [13] 16.9 µM | [14] 8.67 µM | [15] 16.3 µM | [16] 2.31 µM | [17] 18.1 µM | [18] 13.6 µM

COc1ccccc1NC(=O)C1=C(C)NC(C)=C(C(=O)Nc2ccccc2OC)C1/C=C/c1ccccc1
inactive: [1] > 100 µM | [2] 80.9 µM | [3] > 100 µM | [4] > 100 µM | [5] 48.3 µM | [6] 60.1 µM | [7] > 100 µM | [8] > 100 µM | [9] > 100 µM | [10] 39.4 µM | [12] > 100 µM | [13] > 100 µM | [14] 55.3 µM | [15] > 100 µM | [16] 51.8 µM | [17] > 100 µM | [18] > 100 µM

NC(CCSCC(F)(F)F)C(=O)O (configuration not stated)
inactive: [1] > 100 µM | [2] > 100 µM | [3] > 100 µM | [4] > 100 µM | [5] > 100 µM | [6] > 100 µM | [7] > 100 µM | [8] > 100 µM | [9] > 100 µM | [10] > 100 µM | [11] > 100 µM | [12] > 100 µM | [13] > 100 µM | [15] > 100 µM | [16] > 100 µM | [17] > 100 µM | [18] > 100 µM

CC(=O)c1c(C)n(C)c2c1nnc1ccccc12
inactive: [1] 21.1 µM | [2] 32.2 µM | [3] 30.9 µM | [4] 85.5 µM | [5] 33.7 µM | [7] 43.9 µM | [8] 34.1 µM | [9] 43 µM | [19] 61.7 µM | [11] > 100 µM | [20] 46.5 µM | [12] > 100 µM | [13] 43.5 µM | [14] 38.6 µM | [15] 40.2 µM | [17] 49.4 µM | [18] 3.15 µM

CCOP(=O)(OCC)c1cc(-c2ccccc2)ccc1N
inactive: [1] > 100 µM | [2] > 100 µM | [3] > 100 µM | [4] > 100 µM | [5] 66.5 µM | [7] 34.6 µM | [8] > 100 µM | [19] > 100 µM | [10] > 100 µM | [11] 61.8 µM | [20] > 100 µM | [12] > 100 µM | [13] > 100 µM | [14] > 100 µM | [15] 92.3 µM | [17] > 100 µM | [18] > 100 µM

COC(=O)C1Cc2c(OC)ccc(OC)c2CC(C(=O)OC)C1=O (configuration not stated)
inactive: [1] > 100 µM | [2] > 100 µM | [3] > 100 µM | [4] > 100 µM | [5] > 100 µM | [7] 44 µM | [8] > 100 µM | [19] > 100 µM | [10] > 100 µM | [11] > 100 µM | [20] > 100 µM | [12] > 100 µM | [13] > 100 µM | [14] > 100 µM | [15] > 100 µM | [17] > 100 µM | [18] 56 µM

C=CC(=O)N1C/C(=C\c2ccc(N(C)C)cc2)C(=O)/C(=C/c2ccc(N(C)C)cc2)C1
inactive: [1] > 100 µM | [2] > 100 µM | [3] > 100 µM | [4] > 100 µM | [5] 40.6 µM | [7] > 100 µM | [8] 10.4 µM | [9] 11.2 µM | [19] 87.5 µM | [10] 25.8 µM | [20] > 100 µM | [12] 41.3 µM | [13] > 100 µM | [15] 18.5 µM | [17] > 100 µM | [18] > 100 µM

C/C=C(/CBr)CCC(Br)C(C)(C)Cl.C/C=C(\CBr)CCC(Br)C(C)(C)Cl (configuration not stated)
inactive: [1] > 10 µM | [2] > 10 µM | [3] > 10 µM | [4] > 10 µM | [5] > 10 µM | [7] > 10 µM | [8] > 10 µM | [19] > 10 µM | [10] > 10 µM | [11] > 10 µM | [20] > 10 µM | [12] > 10 µM | [13] > 10 µM | [14] > 10 µM | [15] > 10 µM | [17] > 10 µM | [18] > 10 µM
